In US8003678B2, “Therapeutic substituted thiazolidinones, oxazolidinones, and related compounds” (Allergan, Inc., priority 2006, dated 2011):

Molecular target: EP2 (Homo sapiens, UniProt P43116)
Experiment: EP2 cAMP
Assay type: cell-based
Text: U.S. patent application Ser. No. 11/553,143, filed on Oct. 26, 2006, incorporated by reference herein, describes the methods used to obtain the in vitro data in the table below.

EP2, sequence (P43116 whole entry): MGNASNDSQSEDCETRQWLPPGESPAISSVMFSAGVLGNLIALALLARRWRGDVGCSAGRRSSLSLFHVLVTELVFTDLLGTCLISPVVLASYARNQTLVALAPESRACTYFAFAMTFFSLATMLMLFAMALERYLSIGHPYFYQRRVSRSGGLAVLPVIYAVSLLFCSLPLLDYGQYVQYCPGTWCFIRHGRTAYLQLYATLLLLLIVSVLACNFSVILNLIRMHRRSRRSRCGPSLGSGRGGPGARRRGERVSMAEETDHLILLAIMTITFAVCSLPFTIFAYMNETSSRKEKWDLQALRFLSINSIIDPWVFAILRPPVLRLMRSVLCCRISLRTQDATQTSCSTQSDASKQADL

EC50 [nM] | SMILES
0.06 | CCCCCC(O)c1ccc(N2C(=O)COC2CCCc2ccc(C(=O)O)s2)cc1 (centres unmarked)
515 | CCCCCC(O)c1ccc(N2C(=O)CSC2CCCc2ccc(C(=O)O)s2)cc1 (centres unmarked)
